18 compounds from US11952364B2, “TRK inhibitors useful as anticancer drugs” (TYLIGAND BIOSCIENCE (SHANGHAI) LIMITED, priority 2018, dated 2024) can be followed below.

SMILES strings stand for the structures.

One experiment concerns Ba/F3 LMNA-NTRK1-G667C cells. Put plainly: Proliferation of Ba/F3 LMNA-NTRK1-G667C cells (CellTiter-Glo). The conditions noted are these: Mus musculus, BaF3, 72 h, Table 4; 72 hours; read-out: Ba/F3 LMNA-NTRK1-G667C, IC50. Type of experiment: cell-based, mouse. An excerpt: Ba/F3 LMNA-NTRK1-G667C is a stable transgenic cell line constructed by KYinno Biotechnology Co., Ltd. on mouse primary B cell Ba/F3 wherein NTRK1 has a mutation of G to Cat position 667 and is highly expressed and fused with LMNA to form LMNA-NTRK1-G667C. • [Test method]: Promega's CellTiter-Glo® Luminescent Cell Viability Assay kit was used to evaluate the inhibitory activity of the compounds on the proliferation of Ba/F3 LMNA-NTRK1-G667C cells. • [Instrument]: Spectramax M3 multifunctional microplate reader from Molecular Devices. • [Test materials]: Ba/F3 LMNA-NTRK1-G667C cell line (constructed by KYinno Co., Ltd. (Beijing)), 96-well transparent flat-bottomed black-walled cell culture plate (Corning, cat #3603), RPMI-1640 media (GE, cat #SH30027.01), fetal bovine serum FBS (Thermo Fisher, cat #10099-141), CellTiter-Glo® Luminescent Cell Viability Assay kit (Promega, cat #G7572), PBS (Solarbio, cat #P1020), DMSO (Sigma, cat #D2650). • [Experimental procedure]: When resuscitating Ba/F3 LMNA-NTRK1-G667C cells, the freezing tube was quickly shaken in a 37° C. water bath to melt within 1 minute. The thawed cell suspension was mixed uniformly with RPMI1640 medium containing 10% FBS, centrifuged at 1000 rpm for 5 minutes, and the supernatant discarded. 5 mL of complete medium (RPMI1640 medium with 10% FBS) was taken to resuspend the cell pellets, charged into a cell culture flask with a bottom area of 25 cm^2, and incubated in a cell incubator at 37° C., 95% humidity and 5% CO2. Cells were allowed to passage when the number of cells reached about 10^6 cells/mL. For cell passage, the old cell suspension was directly pipetted evenly, 1/5 of the cell suspension was kept, 4 mL of new complete medium was added, after pipetting evenly, the cell flask was placed in the cell incubator for further culturing. Cell plating was performed when the number of cells reached about 10^6 cells/mL again. For cell plating, 1/5 of the cell suspension was kept for further culturing as in the cell passage method, and the remaining 4/5 of the cell suspension was placed in a 15 mL centrifuge tube, detected for cell viability by Trypan blue exclusion method to ensure that cell viability was above 90%. A cell suspension with a density of 5.56×10^4 viable cells/mL was prepared with complete medium, and 90 μL of such cell suspension was added to a 96-well cell culture plate to obtain the cell density of 5000 viable cells/mL in the cell culture plate. A control group containing no cells, no compound and only complete medium (i.e. culture medium control) and a control group containing no compound but containing cells (i.e. cell control) were set. The cell plate was placed in a cell incubator overnight. The 10 mM compound stock solution in DMSO was first serially diluted with DMSO at a dilution factor of 3.16 times, to obtain 9 concentrations, and the 10th concentration was set as DMSO control without compound. Then, PBS was used to dilute the DMSO solutions of compounds of different concentrations, at a dilution factor of 100 times, so that the DMSO concentration in the compound solution of each concentration was 1%. Finally, 10 μL of each of the above solutions was added to the corresponding cell culture plate, so that the initial compound concentration was 10 μM, with the remaining concentrations being successively diluted at a dilution factor of 3.16 times, and the DMSO content in the cell culture plate was 0.1%. The cell plate was placed in a cell incubator and cultured for 72 hours. For endpoint detection, the CellTiter-Glo reagent was melted, and the cell plate was moved to room temperature to equilibrate for 30 minutes, added with 100 μL of CellTiter-Glo for each well, and shaken on an orbital shaker for 5 minutes to fully lyse the cells. The plate was kept at room temperature for 20 minutes to stabilize the luminescence signal, and the luminescence value of each well was scanned with a multi-functional microplate reader at full wavelength. • [Test samples] […]
On the technique in general: Cellular ATP, detected with luciferase, serves as a proxy for viable cell number.
`Cn1ncc2cc(Oc3ccc(NC(=O)c4ccc(C(F)(F)F)n(-c5ccc(F)cc5)c4=O)cc3F)c(-c3cn[nH]c3)cc21` [Example 1, N-(3-fluoro-4-(1-methyl-6-(1H-pyrazol-4-yl)-1H-indazol-5-yloxy)phenyl)-1-(4-fluorophenyl)-6-trifluoromethyl-2-oxo-1,2-dihydmpyridine-3-carboxamide monomethanesulfonate]: the IC50 was 2 nM.

Turning to `Cn1ncc2cc(Oc3ccc(NC(=O)c4ccc(C5CC5)n(-c5ccc(F)cc5)c4=O)cc3F)c(-c3cn[nH]c3)cc21` [Example 2, N-(3-fluoro-4-(1-methyl-6-(1H-pyrazol-4-yl)-1H-indazol-5-yloxy)phenyl)-1-(4-fluorophenyl)-6-cyclopropyl-2-oxo-1,2-dihydmpyridine-3-carboxamide], the IC50 amounted to 1.1 nM.

On to `CCn1ncc2cc(Oc3ccc(NC(=O)c4ccc(C)n(-c5ccc(F)cc5)c4=O)cc3F)c(-c3cn[nH]c3)cc21` [Example 3, N-(3-fluoro-4-(1-ethyl-6-(1H-pyrazol-4-yl)-1H-indazol-5-yloxy)phenyl)-1-(4-fluorophenyl)-6-methyl-2-oxo-1,2-dihydmpyridine-3-carboxamide], for which the IC50 was determined as 1.6 nM.

In the case of `Cc1ccc(C(=O)Nc2ccc(Oc3cc4cnn(C(C)C)c4cc3-c3cn[nH]c3)c(F)c2)c(=O)n1-c1ccc(F)cc1` [Example 4, N-(3-fluoro-4-(1-isopropyl-6-(1H-pyrazol-4-yl)-1H-indazol-5-yloxy)phenyl)-1-(4-fluorophenyl)-6-methyl-2-oxo-1,2-dihydmpyridine-3-carboxamide], the IC50 came out at 2.8 nM.

On to `CCc1ccc(C(=O)Nc2ccc(Oc3cc4cnn(C)c4cc3-c3cn[nH]c3)c(F)c2)c(=O)n1-c1ccc(F)cc1` [Example 5, N-(3-fluoro-4-(1-methyl-6-(1H-pyrazol-4-yl)-1H-indazol-5-yloxy)phenyl)-1-(4-fluorophenyl)-6-ethyl-2-oxo-1,2-dihydropyridine-3-carboxamide], for which the IC50 is under 1 nM.

As to `CC(C)c1ccc(C(=O)Nc2ccc(Oc3cc4cnn(C)c4cc3-c3cn[nH]c3)c(F)c2)c(=O)n1-c1ccc(F)cc1` [Example 6, N-(3-fluoro-4-(1-methyl-6-(1H-pyrazol-4-yl)-1H-indazol-5-yloxy)phenyl)-1-(4-fluorophenyl)-6-isopropyl-2-oxo-1,2-dihydropyridine-3-carboxamide], the IC50 is 0.66 nM.

The experiment is the same for the next values; noted with them: Mus musculus, BaF3, Table 4-1; separate test; read-out: Ba/F3 LMNA-NTRK1-G667C, IC50.
On to `COc1ccc(C(=O)Nc2ccc(Oc3cc4cnn(C)c4cc3-c3cn[nH]c3)c(F)c2)c(=O)n1-c1ccc(F)cc1` [Example 12, N-(3-fluoro-4-(1-methyl-6-(1H-pyrazol-4-yl)-1H-indazol-5-yloxy)phenyl)-1-(4-fluorophenyl)-6-methoxy-2-oxo-1,2-dihydropyridine-3-carboxamide], for which the IC50 is under 1 nM.

For the compound `CCc1ccc(C(=O)Nc2ccc(Oc3cc4cnn(CC)c4cc3-c3cn[nH]c3)c(F)c2)c(=O)n1-c1ccc(F)cc1` [Example 18, N-(3-fluoro-4-(1-ethyl-6-(1H-pyrazol-4-yl)-1H-indazol-5-yloxy)phenyl)-1-(4-fluorophenyl)-6-ethyl-2-oxo-1,2-dihydropyridine-3-carboxamide], the IC50 came out at 1 nM.

Consider `CCn1ncc2cc(Oc3ccc(NC(=O)c4ccc(C5CC5)n(-c5ccc(F)cc5)c4=O)cc3F)c(-c3cn[nH]c3)cc21` [Example 19, N-(3-fluoro-4-(1-ethyl-6-(1H-pyrazol-4-yl)-1H-indazol-5-yloxy)phenyl)-1-(4-fluorophenyl)-6-cyclopropyl-2-oxo-1,2-dihydropyridine-3-carboxamide], for which the IC50 amounted to 2 nM.

`CCn1ncc2cc(Oc3ccc(NC(=O)c4ccc(OC)n(-c5ccc(F)cc5)c4=O)cc3F)c(-c3cn[nH]c3)cc21` [Example 23, N-(3-fluoro-4-(1-ethyl-6-(1H-pyrazol-4-yl)-1H-indazol-5-yloxy)phenyl)-1-(4-fluorophenyl)-6-methoxy-2-oxo-1,2-dihydropyridine-3-carboxamide]: the IC50 was determined as 1 nM.

Staying with this experiment, now noted: Mus musculus, BaF3, Table 4-2; separate test; read-out: Ba/F3 LMNA-NTRK1-G667C, IC50.
`CSc1ccc(C(=O)Nc2ccc(Oc3cc4cnn(C)c4cc3-c3cn[nH]c3)c(F)c2)c(=O)n1-c1ccc(F)cc1` [Example 11, N-(3-fluoro-4-(1-methyl-6-(1H-pyrazol-4-yl)-1H-indazol-5-yloxy)phenyl)-1-(4-fluorophenyl)-6-methylthio-2-oxo-1,2-dihydropyidine-3-carboxamide]: the IC50 came out at 10.5 nM.

Regarding `CCOc1ccc(C(=O)Nc2ccc(Oc3cc4cnn(C)c4cc3-c3cn[nH]c3)c(F)c2)c(=O)n1-c1ccc(F)cc1` [Example 14, N-(3-fluoro-4-(1-methyl-6-(1H-pyrazol-4-yl)-1H-indazol-5-yloxy)phenyl)-1-(4-fluorophenyl)-6-ethoxy-2-oxo-12-dihydropyridine-3-carboxamide], the IC50 turned out to be 8.6 nM.

As to `Cn1ncc2cc(Oc3ccc(NC(=O)c4ccc(OC5CC5)n(-c5ccc(F)cc5)c4=O)cc3F)c(-c3cn[nH]c3)cc21` [Example 15, N-(3-fluoro-4-(1-methyl-6-(1H-pyrazol-4-yl)-1H-indazol-5-yloxy)phenyl)-1-(4-fluorophenyl)-6-cyclopropoxy-2-oxo-1,2-dihydropyridine-3-carboxamide], the IC50 is 10.8 nM.

On to `CC(C)Oc1ccc(C(=O)Nc2ccc(Oc3cc4cnn(C)c4cc3-c3cn[nH]c3)c(F)c2)c(=O)n1-c1ccc(F)cc1` [Example 16, N-(3-fluoro-4-(1-methyl-6-(1H-pyrazol-4-yl)-1H-indazol-5-yloxy)phenyl)-1-(4-fluorophenyl)-6-isopropoxy-2-oxo-1,2-dihydropyridine-3-carboxamide], for which the IC50 came to 10.7 nM.

For `CCn1ncc2cc(Oc3ccc(NC(=O)c4ccc(OC(C)C)n(-c5ccc(F)cc5)c4=O)cc3F)c(-c3cn[nH]c3)cc21` [Example 26, N-(3-fluoro-4-(1-ethyl-6-(1H-pyrazol-4-yl)-1H-indazol-5-yloxy)phenyl)-1-(4-fluorophenyl)-6-isopropoxy-2-oxo-1,2-dihydropyridine-3-carboxamide], the IC50 was 17.5 nM.

Staying with this experiment, now noted: Mus musculus, BaF3, Table 9; read-out: Ba/F3 LMNA-NTRK1-G667C cell proliferation inhibitory activity (IC50).
For `COc1ccc(C(=O)Nc2ccc(Oc3cc4cnn5c4c(c3-c3cn[nH]c3)CC5)c(F)c2)c(=O)n1-c1ccc(F)cc1` [Example 28, N-(4-((5-(1H-pyrazol-4-yl)-6,7-dihydropyrrolo[3,2,1-hi]-indazol-4-yl)oxy)-3-fluorophenyl)-1-(4-fluorophenyl)-6-methoxy-2-oxo-1,2-dihydropyidine-3-carboxamide], the IC50 is 19.8 nM.

For `Cc1ccc(C(=O)Nc2ccc(Oc3cc4cnn5c4c(c3-c3cn[nH]c3)CC5)c(F)c2)c(=O)n1-c1ccc(F)cc1` [Example 31, N-(4-((5-(1H-pyrazol-4-yl)-6,7-dihydropyrrolo[3,2,1-hi]-indazol-4-yl)oxy)-3-fluorophenyl)-1-(4-fluorophenyl)-6-methyl-2-oxo-1,2-dihydropyridine-3-carboxamide], the IC50 worked out at 33 nM.

The experiment is the same for the next values; noted with them: Table 4-2; separate test; read-out: Ba/F3 LMNA-NTRK1-G667C, IC50.
Regarding `CCOc1ccc(C(=O)Nc2ccc(Oc3cc4cnn(CC)c4cc3-c3cn[nH]c3)c(F)c2)c(=O)n1-c1ccc(F)cc1` [Example 24, N-(3-fluoro-4-(1-ethyl-6-(1H-pyrazol-4-yl)-1H-indazol-5-yloxy)phenyl)-1-(4-fluorophenyl)-6-ethoxy-2-oxo-12-dihydropyridine-3-carboxamide], the IC50 was 17.3 nM.
